The values below come from patent US20260207535A1, “CRIBLAGE INHIBITEURS USP8” (COMMISSARIAT A L'ENERGIE ATOMIQUE ET AUX ENERGIES …, priority 2022, published 2026).

Structures are written as SMILES.

The test system of assay [1] is POMC gene. Kind of assay: POMC encoding gene expression (quantitative RT-PCR, normalized to HPRT). The format is cell-based, mouse. The following applies: 10, 20, 30 and 36 μM, 24 hours, vs DMSO. The protocol: Each dot represents the amount of POMC encoding transcripts normalized to the amount of transcripts encoding the housekeeping gene HPRT and then compared to the DMSO control condition. Mean of technical triplicates with errors bars.
ACTH production depends on the activation of the proopiomelanocortin (POMC) gene encoding the ACTH precursor.
3.75×10^5 AtT20 cells were seeded on polylysine-coated 6-well culture microplates on 2.4 mL complete medium. After 24 hours, cells were treated with stock compounds to a final DMSO concentration of 0.5%. After 24 hours of treatment, cells were briefly rinsed with 37° C. DPBS (no calcium, no magnesium modification), lysed with the LBP reagent from the NucleoSpin® RNA Plus kit (Macherey-Nagel 740984.50) and then frozen at −70° C. before continuing with the RNA extraction protocol as per manufacturer's instructions. 1 μg RNA was used to synthesize cDNA using the AffinityScript QPCR cDNA Synthesis Kit (Agilent #600559). qPCR reaction was performed using the primers against the mouse POMC gene (5′-CCTCCTGCTTCAGACCTCCATAGAT-3′ and 5′-GTCTCCAGAGAGGTCGAGTTT). […] Detection was done using the Brilliant II SYBR® Green QPCR Master Mix (Agilent #600828), and readings were done using a Stratagene Mx3005P equipment.

The subject of assay [2] is AtT-20 pituitary cells. Briefly: Inhibition of ACTH secretion in pituitary cells (ACTH EIA on supernatant). The format is cell-based, mouse.
Assay [3] concerns the target T1, Papain (Carica papaya, UniProt P00784).
T1 construct: purchased Sigma P4762
T1 sequence (P00784 134-345): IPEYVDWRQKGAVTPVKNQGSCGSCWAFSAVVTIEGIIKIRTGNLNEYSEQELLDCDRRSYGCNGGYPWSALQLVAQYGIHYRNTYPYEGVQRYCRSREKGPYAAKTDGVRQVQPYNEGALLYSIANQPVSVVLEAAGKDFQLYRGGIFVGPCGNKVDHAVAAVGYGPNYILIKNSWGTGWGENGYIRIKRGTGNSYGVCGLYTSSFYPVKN
Briefly: Papain inhibition (casein digestion, SDS-PAGE). It is filed as biochemical. The protocol: Papain (Sigma ref. P4762) and casein (Merck ref. VM874644) were dissolved in 40 mM TrisHCl buffers pH6.8 and pH9.5 respectively. Casein at the concentration of 0.5 μg/μl was incubated with the inhibitory compounds at efficient inhibitory concentration or with DMSO for 15 min and then digested by Papain (2.5 ng/μl) at RT over 45 min. The digestion samples were collected at time: 5, 15, 30 and 45 min. To inactivate the protease Laemmli 2× was added and each sample was heated at 95° C. for 5 min then analyzed with SDS-PAGE and stained with Coomassie Blue.

As to `Cc1cc(C(C#N)c2ccc(Cl)cc2)c(Cl)cc1NC(=O)c1cc(I)cc(I)c1O` (stereo not shown) [Closantel, reference compound], the “POMC mRNA species (FIG. 8)” value in assay [1] is “strong decrease”. For the same molecule, the “reduction in ACTH release” value in assay [2] (5.62 μM, compared to control) was 20%. Also, the “inhibition of ACTH at 25 μM, in words (FIG. 4, FIG. 5)” value in assay [2] (25 μM, 24-hour treatment) was “significant inhibition”. This molecule also came in with an ACTH secretion reduction in assay [2] (30 μM, compared to control conditions) of 60%. Moreover, the activity at 25 µM in assay [2] (Mus musculus, AtT20, 25 μM, 24-hour treatment, AtT-20 supernatant, read-out: ACTH secretion % of control (DMSO) at 25 μM) worked out at 65%. Moreover, the “dose-dependent inhibition of ACTH (FIG. 3)” value in assay [2] (increasing concentrations, 24-hour treatment) is “significant dose-dependent inhibition”. Moreover, the activity against papain entry in assay [3] is listed as “not active”.
